Measured values published in PMC10333884, “Large‐scale phosphomimetic screening identifies phospho‐modulated motif‐based protein interactions” (Molecular Systems Biology, 2023).
Non-standard residues stand in square brackets, D forms with d. Residues, ends and D or L forms follow the SMILES beside them. pT = C[C@@H](OP(=O)(O)O)[C@H](N)C(=O)O; pS = N[C@@H](COP(=O)(O)O)C(=O)O

How the values were obtained:
[1] = target: T1, KPNA4 ARM minor (Homo sapiens, UniProt O00629); test: FP displacement assay, KPNA4 ARM minor pocket; format: binding; conditions: minor pocket probe FITC-NCOR2 5 nM, 50 mM sodium phosphate pH 7.4, room temperature, at least three technical replicates, read-out: KD values ± SEM
T1 construct: 60-487; GST (cleaved yes); made in house; host or cells: Escherichia coli BL21-Gold(DE3)
Procedure: (§1) FP experiments were performed as described previously (Kliche et al, [2021]). Shortly, in order to monitor the binding event, FITC‐labelled peptides were used (excitation 495 nm, emission: 535 nm) and the FP signal was recorded in mP on a SpectraMax iD5 Multi‐Mode Microplate Reader (Molecular Devices) by measuring the emitted light in two angels. The measurements were performed at room temperature and prepared in nonbinding black half area 96‐well microplates (Corning®; 50 μl/well). For measuring direct binding, that is saturation curves, a 1:1 dilution series of protein domain (25 μl/well) was generated in 50 mM sodium phosphate buffer pH 7.4 and the measurement performed with 5 nM FITC‐labelled peptide (25 μl/well). The buffer‐corrected values were subsequently plotted with PRISM and fitted to the quadratic equation (Gianni et al, [2005]).
(§2) The 1:1 dilution series in this experiment was performed with the unlabelled peptide in 50 mM sodium phosphate buffer pH 7.4, so that each well‐contained unlabelled peptide (25 μl) at a certain concentration and pre‐formed complex (25 μl). The KD values of this indirectly monitored binding event were calculated as described previously (Nikolovska‐Coleska et al, [2004]). All measurements were at least in technical triplicates as well as biological duplicates when indicated. An amplitude shift between repeat measurements in the displacement experiments was occasionally observed due to variations in the protein preparations. If that was the case, the “active” protein concentration was back‐calculated according to the quadratic equation from the saturation curves performed in parallel. By comparing the active protein concentrations in the complex between different protein preparations, the amplitude was normalised.

[2] = target: T2, KPNA4 ARM Major (Homo sapiens, UniProt O00629); test: FP displacement assay, KPNA4 ARM major pocket; format: binding; conditions: major pocket probe FITC-MYC 5 nM, 50 mM sodium phosphate pH 7.4, room temperature, at least three technical replicates, read-out: KD values ± SEM
T2 construct: 60-487; GST (cleaved yes); made in house; host or cells: Escherichia coli BL21-Gold(DE3)
Procedure: as §1, §2

[3] = target: T3, TSG101 UEV (Homo sapiens, UniProt Q99816); test: FP displacement assay, TSG101 UEV; format: binding; conditions: for IC50: Fig 4B, TSG101 UEV, technical triplicates, read-out: IC50 values of displacement curves, with SEM; for Kd: read-out: KD values ± SEM
T3 construct: TSG101_UEV__Q99816_1_145; made in house; host or cells: Escherichia coli BL21-Gold(DE3)
T3 sequence (Q99816 1-145): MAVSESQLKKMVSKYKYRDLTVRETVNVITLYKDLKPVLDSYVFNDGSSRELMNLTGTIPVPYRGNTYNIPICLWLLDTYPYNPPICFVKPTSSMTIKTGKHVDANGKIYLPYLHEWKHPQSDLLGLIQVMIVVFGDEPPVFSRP
Procedure: as §1, §2

[4] = tested on: bait protein domains; test: Phosphomimetic ProP-PD selection against the PM_HD2 library (NGS counts, confidence level, PES), any bait; format: binding, human; set-up: Confidence / Max confidence: scale not given here; conditions: bait ABL1_SH3__P00519_60_121; for Confidence / Promiscuity / Specificity: selection results by peptide; for Has possible phosphoregulated psite? (PES +2/-2, p<0.01) / Max confidence: hit given as wt version
Procedure: Selections using the PM_HD2 phage library were performed as described previously with minor modification to the original protocol. The corresponding tag protein (either GST or MBP) was first used during negative selections. Selections were run for 4 days. • Bait and tag proteins (10–15 μg in 100 μl PBS) were immobilised in 96‐well MaxiSorb plate (NUNC) o.n. at 4°C. • Escherichia coli OmniMax bacteria were grown in 2YT medium supplemented with tetracycline (100 μg/ml) at 37°C and 200 rpm. • Plates with immobilised bait/tag proteins were blocked with 0.5% BSA in PBS for 1 h at 4°C. • Phage library (10 μl/well) was prepared by diluting 10× with PBS and adding one‐fourth of the volume of PEG/NaCl. For phage precipitation, prepared library was incubated for 10 min on ice followed by centrifugation for 10 min at 10,000 × g at 4°C. Phages were resuspended in 0.5% BSA, 0.05% Tween in PBS. • Plates with tag proteins were washed 4× with 0.05% Tween in PBS, and naïve phage library was added to each well (100 μl/well) and the plates incubated for 1 h at 4°C. • Plates with bait protein were washed 4× with 0.05% Tween in PBS, and nonbound phages were transferred from the tag protein plate and the plates incubated for 1 h at 4°C. • Plates were again washed 5× with 0.05% Tween in PBS, and bound phages were eluted with log‐phase OmniMax bacteria (100 μl/well) by incubating for 30 min at 37°C at 200 rpm. • M13K07 helper phage (10^12 cfu/ml) was added to each well and the plates incubated for 45 min at 37°C at 200 rpm. • Amplification took place o.n. by adding the eluted phages to 1.1 ml 2YT media supplemented with kanamycin (25 μg/ml), carbenicillin (50 μg/ml) and 0.3 μM IPTG in a 96‐deep‐well plate and incubating o.n. at 37°C at 200 rpm. • Bacteria were pelleted by centrifugation for 15 min at 1,700 × g at 4°C. The phage supernatant was pH‐adjusted by the addition of 10× PBS and remaining bacteria heat‐inactivated by incubating for 10 min at 60°C. Selections were repeated as described from (5).
Based on the results from phage pool ELISAs, samples from selection Day 3 and 4 were selected for NGS, as described previously (Benz et al, [2022]). • Peptide coding regions were amplified and dual‐barcoded by PCR. 5 μl of the enriched phage pools (50 μl reactions) and a high‐fidelity phusion polymerase (Roche) were used for the PCR reaction. Amplification was confirmed by running the PCR product on 2% agarose gel with a 50 bp ladder. • PCR products (25 μl) were purified with 25 μl of Mag‐bind Total Pure NGS beads and normalised in the same step by taking 10 μl of each reaction after resuspension (Qiagen Elution buffer: 10 mM Tris‐Cl and 0.1 mM EDTA (pH 8.5)) from the beads. • The samples were cleaned up with a PCR purification kit (Qiagen) and subsequently run on a 2% agarose gel, and bands of the correct size (ca. 200 bp) were purified with the QIAquick Gel extraction Kit (Qiagen). From the columns, samples were eluted with 30 μl TE (10 mM Tris–HCl, 1 mM EDTA. pH 7.5) buffer and quantified with Quant‐iT PicoGreen dsDNA Assay Kit. • Samples were sequenced on MiSeq (MSC 2.5.0.5/RTA 1.18.54) with a 151 nt (Read1) setup using “Version3” chemistry. The Bcl to FastQ conversion was performed using bcl2fastq_v2.20.0.422 from the CASAVA software suite.
The processing of sequencing data was performed as described in Ali et al ([2020]). In brief: Pooled results from ~500 selection experiments were demultiplexed by identifying unique combinations of 5′ and 3′ barcodes, sequences with an average quality score of 20 or more were conserved and their adaptors were trimmed, and DNA sequences translated using in‐house custom Python scripts. A table for each experiment was built containing peptide sequences associated with their sequencing counts. […]

[5] = probe FITC-HIV2_Gag 5 nM, 50 mM sodium phosphate pH 7.4, room temperature, at least three technical replicates

T1 sequence (O00629 60-487): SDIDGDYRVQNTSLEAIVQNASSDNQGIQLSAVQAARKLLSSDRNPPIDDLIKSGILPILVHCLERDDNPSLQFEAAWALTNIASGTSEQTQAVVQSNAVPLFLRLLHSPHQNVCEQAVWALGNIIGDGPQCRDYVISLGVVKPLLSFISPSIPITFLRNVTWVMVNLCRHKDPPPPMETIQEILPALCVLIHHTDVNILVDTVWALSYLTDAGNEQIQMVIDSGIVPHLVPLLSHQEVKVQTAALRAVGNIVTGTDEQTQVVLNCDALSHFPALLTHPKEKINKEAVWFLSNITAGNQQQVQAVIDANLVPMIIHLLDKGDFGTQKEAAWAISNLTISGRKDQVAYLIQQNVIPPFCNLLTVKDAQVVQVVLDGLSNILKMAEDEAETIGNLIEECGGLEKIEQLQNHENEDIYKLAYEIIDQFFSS
T2 sequence (O00629 60-487): as above

With `CC(=O)NCC(=O)N[C@@H](C)C(=O)N[C@@H](COP(=O)(O)O)C(=O)N1CCC[C@H]1C(=O)N[C@@H](C)C(=O)N[C@@H](CC(C)C)C(=O)N[C@@H](CCCCN)C(=O)N[C@@H](CCCNC(=N)N)C(=O)N[C@@H](CO)C(=O)N[C@@H](Cc1c[nH]cn1)C(=O)N[C@@H](CO)C(=O)N[C@@H](CC(=O)O)C(=O)N[C@@H](CO)C(=O)N[C@@H](Cc1ccc(O)cc1)C(N)=O` [CDC25A114–125 pS] (Ac-GA[pS]PALKRSHSDSY-NH2) the Kd [1] was 2.8 ± 0.4 µM and the Kd [2] was 0.63 ± 0.04 µM.
Work on `CC(=O)NCC(=O)N[C@@H](C)C(=O)N[C@@H](CO)C(=O)N1CCC[C@H]1C(=O)N[C@@H](C)C(=O)N[C@@H](CC(C)C)C(=O)N[C@@H](CCCCN)C(=O)N[C@@H](CCCNC(=N)N)C(=O)N[C@@H](CO)C(=O)N[C@@H](Cc1c[nH]cn1)C(=O)N[C@@H](CO)C(=O)N[C@@H](CC(=O)O)C(=O)N[C@@H](CO)C(=O)N[C@@H](Cc1ccc(O)cc1)C(N)=O` [CDC25A114–125 wt] (Ac-GASPALKRSHSDSY-NH2) yielded a Kd [1] of 0.2 ± 0.004 µM and a Kd [2] of 8.8 ± 0.2 µM.
Compound `CSCC[C@H](NC(=O)[C@@H]1CCCN1C(=O)[C@H](COP(=O)(O)O)NC(=O)[C@H](CC(C)C)NC(=O)[C@@H]1CCCN1C(=O)[C@H](C)NC(=O)[C@@H](NC(=O)[C@@H]1CCCN1C(=O)[C@H](CO)NC(=O)[C@H](CO)NC(=O)[C@H](C)NC(=O)CNC(=O)[C@H](CC(N)=O)NC(=O)[C@H](Cc1ccc(O)cc1)NC(C)=O)[C@@H](C)O)C(=O)N[C@@H](CO)C(=O)N1CCC[C@H]1C(N)=O` [GJA1_269–283 pS] (Ac-YNGASSPTAPL[pS]PMSP-NH2) has an IC50 [3] of 420 ± 29 µM and a Kd [3, 5] of 209 ± 8 µM.
`CSCC[C@H](NC(=O)[C@@H]1CCCN1C(=O)[C@H](CO)NC(=O)[C@H](CC(C)C)NC(=O)[C@@H]1CCCN1C(=O)[C@H](C)NC(=O)[C@@H](NC(=O)[C@@H]1CCCN1C(=O)[C@H](CO)NC(=O)[C@H](CO)NC(=O)[C@H](C)NC(=O)CNC(=O)[C@H](CC(N)=O)NC(=O)[C@H](Cc1ccc(O)cc1)NC(C)=O)[C@@H](C)O)C(=O)N[C@@H](CO)C(=O)N1CCC[C@H]1C(N)=O` [GJA1_269–283 wt] (Ac-YNGASSPTAPLSPMSP-NH2) gave a Kd [3, 5] of 232 ± 16 µM.
`CC[C@H](C)[C@H](NC(=O)[C@H](CO)NC(=O)[C@H](CCC(N)=O)NC(C)=O)C(=O)N[C@@H](C)C(=O)N[C@@H](CCCNC(=N)N)C(=O)N[C@@H](CCC(=O)O)C(=O)N1CCC[C@H]1C(=O)N[C@@H](CO)C(=O)N[C@@H](C)C(=O)N1CCC[C@H]1C(=O)N[C@@H](CO)C(=O)N[C@H](C(=O)N1CCC[C@H]1C(=O)N[C@H](C(=O)N1CCC[C@H]1C(=O)N[C@@H](Cc1ccc(O)cc1)C(N)=O)[C@@H](C)O)[C@@H](C)CC` [PDCD6IP711–725 wt] (Ac-QSIAREPSAPSIPTPY-NH2) gave an IC50 [3] of 34 ± 10 µM and a Kd [3, 5] of 16 ± 3 µM.
Work on `CC(=O)N[C@@H](Cc1c[nH]cn1)C(=O)N[C@@H](CO)C(=O)NCC(=O)N[C@@H](CC(N)=O)C(=O)N[C@H](C(=O)N[C@H](C(=O)N1CCC[C@H]1C(=O)N[C@H](C(=O)N[C@@H](C)C(=O)N1CCC[C@H]1C(=O)N1CCC[C@H]1C(=O)N[C@@H](Cc1ccc(O)cc1)C(=O)N[C@@H](CC(C)C)C(=O)N[C@@H](CCC(N)=O)C(=O)N[C@@H](CCC(=O)O)C(=O)N[C@@H](CO)C(N)=O)[C@@H](C)O)[C@@H](C)OP(=O)(O)O)C(C)C` [PIP4P2_17–32 pS] (Ac-HSGNV[pT]PTAPPYLQES-NH2) yielded an IC50 [3] of 34 ± 10 µM and a Kd [3, 5] of 16 ± 3 µM.
`CC(=O)N[C@@H](Cc1c[nH]cn1)C(=O)N[C@@H](CO)C(=O)NCC(=O)N[C@@H](CC(N)=O)C(=O)N[C@H](C(=O)N[C@H](C(=O)N1CCC[C@H]1C(=O)N[C@H](C(=O)N[C@@H](C)C(=O)N1CCC[C@H]1C(=O)N1CCC[C@H]1C(=O)N[C@@H](Cc1ccc(O)cc1)C(=O)N[C@@H](CC(C)C)C(=O)N[C@@H](CCC(N)=O)C(=O)N[C@@H](CCC(=O)O)C(=O)N[C@@H](CO)C(N)=O)[C@@H](C)O)[C@@H](C)O)C(C)C` [PIP4P2_17–32 wt] (Ac-HSGNVTPTAPPYLQES-NH2) was tested, and the Kd [3, 5] was 14 ± 1 µM.
DAPPHYPPPSTAAAEP was tested, and the Confidence [4] was 3, the Promiscuity [4] was 4 and the Specificity [4] was 0.8807.
For DAPPHYPPPSTAAASP [listing 1 of 2 here], the “Has possible phosphoregulated psite? (PES +2/-2, p<0.01)” value [4] was “yes” and the Max confidence [4] was 3.
DAPPHYPPPSTAAASP [listing 2 of 2 here] was tested, and the Confidence [4] was 2, the Promiscuity [4] was 3 and the Specificity [4] was 0.7461.
“H3COC-QSIAREPS(pS/E)APSIPTPY-NH2 [PDCD6IP711–725 pS, phosphorylated PDCD6IP 711-725 peptide]” was tested, and the “KD values ± SEM” value [3, 5] was “n.b”.
LTYPQYSPPQPRPGVI was tested, and the “Has possible phosphoregulated psite? (PES +2/-2, p<0.01)” value [4] was “yes” and the Max confidence [4] was 4.
PATSPPKEPPQLEALQ was tested, and the Confidence [4] was 2, the Promiscuity [4] was 2 and the Specificity [4] was 0.9898.
In the case of PATSPPKTPPQLEALQ [listing 1 of 2 here], the “Has possible phosphoregulated psite? (PES +2/-2, p<0.01)” value [4] is reported as “yes” and the Max confidence [4] is reported as 3.
Compound PATSPPKTPPQLEALQ [listing 2 of 2 here] has a Confidence [4] of 3, a Promiscuity [4] of 3 and a Specificity [4] of 0.9995.
With PPFSPPPSPRGEVERG the “Has possible phosphoregulated psite? (PES +2/-2, p<0.01)” value [4] was “yes” and the Max confidence [4] was 3.
PSYSPPDTSPANRSFV was tested, and the Confidence [4] was 2, the Promiscuity [4] was 1 and the Specificity [4] was 1.
For SPPRPPPPPPLLGTVS, the “Has possible phosphoregulated psite? (PES +2/-2, p<0.01)” value [4] was “yes” and the Max confidence [4] was 3.
